Converted amounts (≈) assume the structure as drawn.
How the values were obtained:
M. catarrhalis = assay: Broth microdilution MIC testing; type: cell-based, Moraxella catarrhalis; conditions: for MIC: Moraxella catarrhalis
E. faecalis = assay: Broth microdilution MIC testing; type: cell-based, Enterococcus faecalis; conditions: for MIC E. fae: E. faecalis; for MIC: Enterococcus faecalis, read-out: MIC E. fae
E. coli tolC mutants = assay: Broth microdilution MIC testing; type: cell-based, Escherichia coli; conditions: for MIC E. coli tolC: E. coli tolC mutants; for MIC: Escherichia coli, read-out: MIC E. coli tolC
S. aureus = assay: Broth microdilution MIC testing; type: cell-based, Staphylococcus aureus; conditions: for MIC: Staphylococcus aureus, read-out: MIC S. aureus
S. pneumoniae = assay: Broth microdilution MIC testing; type: cell-based, Streptococcus pneumoniae; conditions: for MIC S. pneumo: S. pneumoniae; for MIC: Streptococcus pneumoniae, read-out: MIC S. pneumo
[1] = tested on: bacterial protein synthesis (aminoacylation/translation system); assay: aminoacylation/translation (A/T) assay; type: biochemical; conditions: for IC50: A/T assay, Table 1, read-out: IC50
[2] = tested on: E. coli modified with PMBN; assay: Broth microdilution MIC testing; type: cell-based, Escherichia coli; conditions: for MIC E. coli +PMBP: E. coli modified with PMBN; for MIC: Escherichia coli, read-out: MIC E. coli +PMBP
H. influenzae = assay: Broth microdilution MIC testing; type: cell-based, Haemophilus influenzae; conditions: for MIC H. flu: H. influenzae; for MIC: Haemophilus influenzae, read-out: MIC H. flu

With COc1cccc(CN2CCc3nc(-c4ccccn4)[nH]c(=O)c3C2)c1OC [Compound 323223] the “MIC M. cat” value (M. catarrhalis) was 4 µg/mL (≈ 10.6 µM), the “MIC E. fae” value (E. faecalis) was over 128 µg/mL and the “MIC E. coli tolC” value (E. coli tolC mutants) was 128 µg/mL (≈ 338 µM). The “MIC S. aureus” value (S. aureus) was over 128 µg/mL, the “MIC S. pneumo” value (S. pneumoniae) was 32 µg/mL (≈ 84.6 µM) and the IC50 [1] was 14.7 µM. The “MIC E. coli +PMBP” value [2] was 64 µg/mL (≈ 169 µM) and the “MIC H. flu” value (H. influenzae) was 32 µg/mL (≈ 84.6 µM).

With COc1cc(OC)c(OC)cc1CN1CCc2nc(-c3ccccn3)[nH]c(=O)c2C1 [Compound 323226] the “MIC M. cat” value (M. catarrhalis) was 64 µg/mL (≈ 157 µM), the “MIC E. fae” value (E. faecalis) was over 128 µg/mL and the “MIC E. coli tolC” value (E. coli tolC mutants) was over 128 µg/mL. For the same compound, the “MIC S. aureus” value (S. aureus) was over 128 µg/mL, the “MIC S. pneumo” value (S. pneumoniae) was over 128 µg/mL and the IC50 [1] was 8 µM. For the same compound, the “MIC E. coli +PMBP” value [2] was over 128 µg/mL and the “MIC H. flu” value (H. influenzae) was over 128 µg/mL.

For O=c1[nH]c(-c2ccccn2)nc2c1CN(Cc1cc(F)cc(F)c1)CC2 [Compound 323230], the “MIC M. cat” value (M. catarrhalis) was 0.5 µg/mL (≈ 1.41 µM), the “MIC E. fae” value (E. faecalis) was 32 µg/mL (≈ 90.3 µM) and the “MIC E. coli tolC” value (E. coli tolC mutants) was 16 µg/mL (≈ 45.2 µM). For the same compound, the “MIC S. aureus” value (S. aureus) was 32 µg/mL (≈ 90.3 µM), the “MIC S. pneumo” value (S. pneumoniae) was 8 µg/mL (≈ 22.6 µM) and the IC50 [1] was 2 µM. For the same compound, the “MIC E. coli +PMBP” value [2] was 16 µg/mL (≈ 45.2 µM) and the “MIC H. flu” value (H. influenzae) was 8 µg/mL (≈ 22.6 µM).

For CN(CCO)c1ccc(CN2CCc3nc(-c4ccccn4)[nH]c(=O)c3C2)cc1 [Compound 323232], the “MIC M. cat” value (M. catarrhalis) was 8 µg/mL (≈ 20.4 µM), the “MIC E. fae” value (E. faecalis) was over 128 µg/mL and the “MIC E. coli tolC” value (E. coli tolC mutants) was 128 µg/mL (≈ 327 µM). For the same compound, the “MIC S. aureus” value (S. aureus) was over 128 µg/mL, the “MIC S. pneumo” value (S. pneumoniae) was over 128 µg/mL and the IC50 [1] was 3.2 µM. For the same compound, the “MIC E. coli +PMBP” value [2] was over 128 µg/mL and the “MIC H. flu” value (H. influenzae) was over 128 µg/mL.

For COc1cc2c(cc1CN1CCc3nc(-c4ccccn4)[nH]c(=O)c3C1)OCO2 [Compound 323233], the “MIC M. cat” value (M. catarrhalis) was 4 µg/mL (≈ 10.2 µM), the “MIC E. fae” value (E. faecalis) was 128 µg/mL (≈ 326 µM) and the “MIC E. coli tolC” value (E. coli tolC mutants) was 64 µg/mL (≈ 163 µM). For the same compound, the “MIC S. aureus” value (S. aureus) was over 128 µg/mL, the “MIC S. pneumo” value (S. pneumoniae) was 32 µg/mL (≈ 81.5 µM) and the IC50 [1] was over 300 µM. For the same compound, the “MIC E. coli +PMBP” value [2] was 64 µg/mL (≈ 163 µM) and the “MIC H. flu” value (H. influenzae) was 16 µg/mL (≈ 40.8 µM).

In the case of COc1ccc(CN2CCc3nc(-c4ccccn4)[nH]c(=O)c3C2)cc1Cn1cccn1 [Compound 323234], the “MIC M. cat” value (M. catarrhalis) is reported as 16 µg/mL (≈ 37.3 µM), the “MIC E. fae” value (E. faecalis) is reported as 128 µg/mL (≈ 299 µM) and the “MIC E. coli tolC” value (E. coli tolC mutants) is reported as over 128 µg/mL. The “MIC S. aureus” value (S. aureus) was over 128 µg/mL, the “MIC S. pneumo” value (S. pneumoniae) was 128 µg/mL (≈ 299 µM) and the IC50 [1] was 5.8 µM. For the same compound, the “MIC E. coli +PMBP” value [2] was 64 µg/mL (≈ 149 µM) and the “MIC H. flu” value (H. influenzae) was 128 µg/mL (≈ 299 µM).

For COc1ccc(CN2CCc3nc(-c4ccccn4)[nH]c(=O)c3C2)c(OC)c1O [Compound 323236], the “MIC M. cat” value (M. catarrhalis) was over 128 µg/mL, the “MIC E. fae” value (E. faecalis) was over 128 µg/mL and the “MIC E. coli tolC” value (E. coli tolC mutants) was over 128 µg/mL. The “MIC S. aureus” value (S. aureus) was over 128 µg/mL, the “MIC S. pneumo” value (S. pneumoniae) was over 128 µg/mL and the IC50 [1] was 7.8 µM. The “MIC E. coli +PMBP” value [2] was over 128 µg/mL and the “MIC H. flu” value (H. influenzae) was over 128 µg/mL.

O=c1[nH]c(-c2ccccn2)nc2c1CN(Cc1cccc(F)c1F)CC2 [Compound 323237] was tested, and the “MIC M. cat” value (M. catarrhalis) was 0.5 µg/mL (≈ 1.41 µM), the “MIC E. fae” value (E. faecalis) was 64 µg/mL (≈ 181 µM) and the “MIC E. coli tolC” value (E. coli tolC mutants) was 8 µg/mL (≈ 22.6 µM). The “MIC S. aureus” value (S. aureus) was 32 µg/mL (≈ 90.3 µM), the “MIC S. pneumo” value (S. pneumoniae) was 8 µg/mL (≈ 22.6 µM) and the IC50 [1] was 2.8 µM. For the same compound, the “MIC E. coli +PMBP” value [2] was 16 µg/mL (≈ 45.2 µM) and the “MIC H. flu” value (H. influenzae) was 4 µg/mL (≈ 11.3 µM).

With CC(=O)Oc1ccc(CN2CCc3nc(-c4ccccn4)[nH]c(=O)c3C2)cc1 [Compound 323238] the “MIC M. cat” value (M. catarrhalis) was 16 µg/mL (≈ 42.5 µM), the “MIC E. fae” value (E. faecalis) was over 128 µg/mL and the “MIC E. coli tolC” value (E. coli tolC mutants) was over 128 µg/mL. The “MIC S. aureus” value (S. aureus) was over 128 µg/mL, the “MIC S. pneumo” value (S. pneumoniae) was over 128 µg/mL and the IC50 [1] was 2.1 µM. For the same compound, the “MIC E. coli +PMBP” value [2] was over 128 µg/mL and the “MIC H. flu” value (H. influenzae) was 32 µg/mL (≈ 85 µM).

For CCOc1ccc(CN2CCc3nc(-c4ccccn4)[nH]c(=O)c3C2)cc1Cn1ccnc1 [Compound 323239], the “MIC M. cat” value (M. catarrhalis) was 8 µg/mL (≈ 18.1 µM), the “MIC E. fae” value (E. faecalis) was 64 µg/mL (≈ 145 µM) and the “MIC E. coli tolC” value (E. coli tolC mutants) was 64 µg/mL (≈ 145 µM). For the same compound, the “MIC S. aureus” value (S. aureus) was over 128 µg/mL, the “MIC S. pneumo” value (S. pneumoniae) was over 128 µg/mL and the IC50 [1] was 3 µM. For the same compound, the “MIC E. coli +PMBP” value [2] was 128 µg/mL (≈ 289 µM) and the “MIC H. flu” value (H. influenzae) was 64 µg/mL (≈ 145 µM).

Compound O=C(c1ccc(Cl)cc1)N1CCc2nc(-c3ccccn3)[nH]c(=O)c2C1 [Compound 323353] has an MIC (M. catarrhalis) of 8 µg/mL (≈ 21.8 µM), an MIC (E. faecalis) of over 128 µg/mL and an MIC (E. coli tolC mutants) of 128 µg/mL (≈ 349 µM). The MIC (S. aureus) was over 128 µg/mL, the MIC (S. pneumoniae) was 128 µg/mL (≈ 349 µM) and the IC50 [1] was 1.7 µM. The MIC [2] was 128 µg/mL (≈ 349 µM) and the MIC (H. influenzae) was 32 µg/mL (≈ 87.2 µM).

For O=c1[nH]c(-c2cnccn2)nc2c1CN(Cc1ccc(Cl)cc1)CC2 [Compound 323354], the MIC (M. catarrhalis) was 16 µg/mL (≈ 45.2 µM), the MIC (E. faecalis) was over 128 µg/mL and the MIC (E. coli tolC mutants) was over 128 µg/mL. For the same compound, the MIC (S. aureus) was over 128 µg/mL, the MIC (S. pneumoniae) was over 128 µg/mL and the IC50 [1] was 21.6 µM. For the same compound, the “fold reduction of potency/biochemical activity in the A/T assay” value ([1]; relative to 321521) was “tenfold”, the MIC [2] was over 128 µg/mL and the MIC (H. influenzae) was over 128 µg/mL.

Work on Clc1ccc(CN2CCc3nc(-c4ccccn4)ncc3C2)cc1 [Compound 323355] yielded an MIC (M. catarrhalis) of 4 µg/mL (≈ 11.9 µM), an MIC (E. faecalis) of over 128 µg/mL and an MIC (E. coli tolC mutants) of 64 µg/mL (≈ 190 µM). For the same compound, the MIC (S. aureus) was 128 µg/mL (≈ 380 µM), the MIC (S. pneumoniae) was 64 µg/mL (≈ 190 µM) and the IC50 [1] was 32.1 µM. It also gave an MIC [2] of 64 µg/mL (≈ 190 µM) and an MIC (H. influenzae) of 64 µg/mL (≈ 190 µM).
